Assay results from article PMC5464768, “ER retention is imposed by COPII protein sorting and attenuated by 4-phenylbutyrate” (eLife, 2017).
Read-outs that look alike come from different tables or passages of the source.

Assays:
[1] = test system: CHO cells expressing G544V-mutant LDL receptor; experiment: Restoration of trafficking of mutant LDL receptor in cells (immunoblot for 160 kDa mature glycosylated form); type: cell-based; details: for EC50: ± standard error of fit
Protocol: (§1) T-Rex-CHO-K1 cloned cell lines expressing wild-type and mutant LDL receptor were cultured as described ([Sørensen et al., 2006]; [Tveten et al., 2007]), and according to the manufacturer’s protocols (Thermo Fisher Scientific; CHO cell Lot No. 1610593). The expression in CHO cells of G544V-mutant or wild-type LDL receptor protein was induced with 1 µg/mL tetracycline for 24 hr prior to experiments with 4-PBA or 4-PBA analogs ([Tveten et al., 2007]). To compare pharmacological potency of 4-PBA analogs, cells were incubated with the compounds for 2 hr at 37°C in 12-well 22 mm plates (Corning Costar #3513). For experiments concerning the extracellular secretion of GRP94 (Figure 5), the incubations with 4-PBA were extended to 24 hr. Cells were broken in lysis buffer (1% (v/v) Triton X-100, 150 mM NaCl, 10 mM EDTA, 50 mM Tris-HCl pH 7.5) and cleared by centrifugation (15,000 g for 15 min). Cellular protein concentration was measured using ‘Protein Assay Kit II’ (Bio-Rad) with bovine serum albumin as standard. Lysates were added to Laemmli sample buffer (New England BioLabs) containing 130 mM dithiothreitol and heated for 15 min at 55°C. Cell medium (containing secreted proteins) was added to Laemmli sample buffer containing 5% β-mercaptoethanol and boiled for 5 min. Samples were run on 4–15% Tris/HCl Criterion gels (Bio-Rad) followed by immunoblotting.
Proteins were electrotransferred from SDS-PAGE gels onto Immun-Blot low fluorescence PVDF membrane (Bio-Rad) and blocked using TBST (5% BioRad Blocker in 25 mM Tris-HCl pH 7.4, 150 mM NaCl, 0.05% (v/v) Tween 20). Membranes were incubated at 4°C overnight with primary antibodies in TBST followed by incubation with horseradish peroxidase-conjugated secondary antibodies. Chemiluminescence signals were generated by incubation with ECL Prime Western Blotting detection reagent (GE Healthcare #RPN2236). […] Chemiluminescence signals were detected using a ChemiDoc MP Imaging System and acquired with Image Lab 5.0 software (Bio-Rad). Quantification of protein band intensities was performed using Image Gauge software Version 4.1 (Fujifilm), including background correction of the raw image data.
Chemiluminescence signals from western blots for the glycosylated (160 kDa) form of G544V-mutant LDL receptor were quantified as a percentage of total LDL receptor protein (glycosylated + unglycosylated bands). Data at high concentrations of 4-PBA analogs, which show inhibition of LDL receptor trafficking, were omitted. Data from individual experiments were normalized (to obtain maximal response = 100%), so that data from replicate experiments (n = 4–5) could be averaged. Logistic fitting to the dose-response data was carried out with program Ultrafit (Elsevier Biosoft).

human Sec24a = target: T1, human Sec24a (Homo sapiens, UniProt O95486); experiment: Fluorescence polarization competition binding assay (displacement of 5-Fam-[…]); details: fluorescence polarization at 22°C; 5 µM probe, 22 µM Sec24a; ± standard error of fit; read-out: IC50, displacement of fluorescent probe 5-Fam-[…] from Sec24a
T1 construct: His6 (TEV-cleavable) (N, cleaved yes); made in house; host or cells: High Five insect cells (baculovirus)
T1 sequence (O95486 341-1093): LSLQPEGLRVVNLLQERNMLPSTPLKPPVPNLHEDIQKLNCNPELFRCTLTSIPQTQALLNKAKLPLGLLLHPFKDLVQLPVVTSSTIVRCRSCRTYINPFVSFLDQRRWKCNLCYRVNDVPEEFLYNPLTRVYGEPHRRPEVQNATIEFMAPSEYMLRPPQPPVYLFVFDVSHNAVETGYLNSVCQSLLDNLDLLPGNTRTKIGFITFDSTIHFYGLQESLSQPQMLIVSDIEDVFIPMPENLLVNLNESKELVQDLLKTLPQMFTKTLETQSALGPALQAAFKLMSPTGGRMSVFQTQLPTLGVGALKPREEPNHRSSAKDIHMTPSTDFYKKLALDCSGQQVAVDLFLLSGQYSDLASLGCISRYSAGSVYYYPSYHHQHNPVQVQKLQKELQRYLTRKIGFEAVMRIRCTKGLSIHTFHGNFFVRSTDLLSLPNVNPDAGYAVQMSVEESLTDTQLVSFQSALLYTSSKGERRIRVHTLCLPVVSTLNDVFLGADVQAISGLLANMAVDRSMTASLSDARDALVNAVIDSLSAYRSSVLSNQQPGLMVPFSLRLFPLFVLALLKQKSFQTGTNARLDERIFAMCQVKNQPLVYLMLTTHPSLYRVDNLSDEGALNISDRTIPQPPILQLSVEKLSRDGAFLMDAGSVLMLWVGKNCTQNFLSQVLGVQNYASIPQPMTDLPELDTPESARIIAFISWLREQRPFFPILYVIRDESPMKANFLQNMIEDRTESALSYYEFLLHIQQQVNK

[2] = target: T2, COPII coat (Sec23a/24d) packaging of p24 proteins and ERGIC-53 (Homo sapiens, UniProt O94855); experiment: In vitro COPII vesicle budding assay with permeabilized CHO (T-Rex-CHO-K1) cells; type: biochemical, H. sapiens; details: 10 mM 4-PBA; corrected for budding yield
T2 construct: Sec23a/Sec24d (full-length protein) for COPII budding assays; His6 (TEV-cleavable) (N); made in house; host or cells: High Five insect cells (Sec23a/24d, Sec13a/31a); E. coli BL21(DE3) (Sar1a); added to digitonin-permeabilized T-Rex-CHO-K1 cells
Protocol: In vitro COPII budding reactions used permeabilized cells prepared from the T-Rex-CHO-K1 parent line and from the clone that expresses mutant LDL receptor. Permeabilization was carried out as described ([Mancias and Goldberg, 2008]) with modifications. Two culture dishes (150 mm) of cells were prepared with cells at no greater than 60% confluence. Cells were washed with 20 ml PBS at 37°C and then trypsinized with 2 ml of Trypsin-EDTA (0.05%, Gibco) for 1 min at 37°C; 100 µl of Soybean Trypsin Inhibitor (2 mg/ml; Sigma) was added to each culture plate. To this was added 5.5 ml ice-cold KHM buffer (110 mM KOAc, 20 mM Hepes pH 7.2, 2 mM magnesium acetate) per plate, and cells were transferred to a 15 ml Falcon tube and pelleted gently (250 g for 3 min at 4°C). The supernatant was aspirated and the cells resuspended in 6 ml ice-cold KHM buffer. To permeabilize the cells, 6 µl digitonin stock solution (40 mg/ml in dimethyl sulfoxide) was added, cells were mixed by inversion and incubated on ice for 5 min. To terminate permeabilization, cells were diluted to 14 ml with KHM buffer and immediately pelleted at 250 g for 3 min at 4°C. […] The protein concentration was measured using protein assay kit (Bio-Rad) with BSA as standard; routinely, the measurement is in the range 4–5 mg/ml. […]

[3] = test system: CHO cells (stressed, expressing G544V-mutant LDL receptor, and unstressed wild-type); experiment: Extracellular secretion of GRP94 from CHO cells; type: cell-based; details: 24 hr at 37°C
Protocol: as §1

B site of Sec24a = target: T3, B site of Sec24a (Homo sapiens, UniProt O95486); experiment: X-ray crystallography of ligand-soaked Sec23a/Sec24a•Sec22b crystals; type: binding; details: crystals soaked with 4-PBA at 1, 15 and 50 mM or with 5 mM ΦC signal peptide
T3 construct: His6 (TEV-cleavable) (N, cleaved yes); made in house; host or cells: High Five insect cells (Sec23a/Sec24a); E. coli (Sec22b)
Protocol: The Sec23a/Sec24a•Sec22b complex was crystallized as described previously ([Mancias and Goldberg, 2007]) from a solution comprising 10% (w/v) PEG 4000, 500 mM Na acetate and 50 mM Tris-HCl pH 7.9. Since acetate ions compete with ligand binding at the B site, crystals were transferred into a soaking buffer of 10% (w/v) PEG 4000, 600 mM NaCl, 50 mM Tris-HCl buffer, pH 7.9. (Two acetate ions are observed bound to B-site arginine residues in electron density maps calculated from Sec23a/Sec24a•Sec22b crystallographic data, PDB 2NUT). To this was added 4-PBA (0–50 mM) or 5 mM ΦC signal peptide, and ligand soaking proceeded for five hours at 22°C. Crystals were then transferred to an equivalent ligand-containing buffer with additional 24% ethylene glycol cryo-protectant, and were flash frozen in liquid nitrogen. Crystals treated in this manner diffracted synchrotron X-rays to 2.5–2.8 Å resolution.
X-ray diffraction data were collected at 0.979 Å wavelength on beamline ID-24C or ID-24E of the Advanced Photon Source, Argonne National Laboratory. Data were processed with the program HKL2000 ([Otwinowski and Minor, 1997]; Tables 1 and 2). Structure refinement was carried out using Phenix ([Adams et al., 2010]), initially by rigid-body improvement, followed by positional refinement, based on the published coordinates of Sec23a/Sec24a•Sec22b (PDB 2NUT; [Mancias and Goldberg, 2007]). […]

[4] = Cricetulus griseus, CHO, 2 h, read-out: EC50, acquisition of mutant LDL receptor glycosylation (restoration of trafficking), CHO cells expressing G544V-mutant LDL receptor, 2 hr at 37°C

T2 sequence (O94855 whole entry): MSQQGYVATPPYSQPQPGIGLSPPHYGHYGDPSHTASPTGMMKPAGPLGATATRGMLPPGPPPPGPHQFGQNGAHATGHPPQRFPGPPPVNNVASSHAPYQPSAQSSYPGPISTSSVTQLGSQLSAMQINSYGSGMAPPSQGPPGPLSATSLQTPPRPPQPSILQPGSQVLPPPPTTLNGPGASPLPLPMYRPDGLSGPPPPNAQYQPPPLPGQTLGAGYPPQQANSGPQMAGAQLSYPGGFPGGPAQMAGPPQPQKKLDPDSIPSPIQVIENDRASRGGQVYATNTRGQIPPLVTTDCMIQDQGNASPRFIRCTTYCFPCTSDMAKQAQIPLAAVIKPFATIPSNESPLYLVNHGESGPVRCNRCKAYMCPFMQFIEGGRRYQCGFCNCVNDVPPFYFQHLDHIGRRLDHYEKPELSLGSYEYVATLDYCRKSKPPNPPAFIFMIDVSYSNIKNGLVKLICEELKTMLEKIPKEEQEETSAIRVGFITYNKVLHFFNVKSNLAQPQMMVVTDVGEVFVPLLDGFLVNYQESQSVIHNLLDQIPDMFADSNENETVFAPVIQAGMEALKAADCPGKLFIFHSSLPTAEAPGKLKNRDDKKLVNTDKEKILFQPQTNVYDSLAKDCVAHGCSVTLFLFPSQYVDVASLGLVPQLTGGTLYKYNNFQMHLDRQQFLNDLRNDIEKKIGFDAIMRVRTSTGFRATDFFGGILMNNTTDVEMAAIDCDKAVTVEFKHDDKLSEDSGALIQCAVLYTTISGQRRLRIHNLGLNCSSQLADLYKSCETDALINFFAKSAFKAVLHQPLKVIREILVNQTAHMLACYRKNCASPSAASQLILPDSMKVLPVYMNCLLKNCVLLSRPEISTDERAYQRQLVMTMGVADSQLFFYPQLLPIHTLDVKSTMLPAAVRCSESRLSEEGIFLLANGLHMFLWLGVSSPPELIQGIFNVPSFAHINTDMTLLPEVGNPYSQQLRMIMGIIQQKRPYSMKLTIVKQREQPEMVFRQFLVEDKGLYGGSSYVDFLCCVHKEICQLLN
T2 sequence (Q15436 whole entry partner): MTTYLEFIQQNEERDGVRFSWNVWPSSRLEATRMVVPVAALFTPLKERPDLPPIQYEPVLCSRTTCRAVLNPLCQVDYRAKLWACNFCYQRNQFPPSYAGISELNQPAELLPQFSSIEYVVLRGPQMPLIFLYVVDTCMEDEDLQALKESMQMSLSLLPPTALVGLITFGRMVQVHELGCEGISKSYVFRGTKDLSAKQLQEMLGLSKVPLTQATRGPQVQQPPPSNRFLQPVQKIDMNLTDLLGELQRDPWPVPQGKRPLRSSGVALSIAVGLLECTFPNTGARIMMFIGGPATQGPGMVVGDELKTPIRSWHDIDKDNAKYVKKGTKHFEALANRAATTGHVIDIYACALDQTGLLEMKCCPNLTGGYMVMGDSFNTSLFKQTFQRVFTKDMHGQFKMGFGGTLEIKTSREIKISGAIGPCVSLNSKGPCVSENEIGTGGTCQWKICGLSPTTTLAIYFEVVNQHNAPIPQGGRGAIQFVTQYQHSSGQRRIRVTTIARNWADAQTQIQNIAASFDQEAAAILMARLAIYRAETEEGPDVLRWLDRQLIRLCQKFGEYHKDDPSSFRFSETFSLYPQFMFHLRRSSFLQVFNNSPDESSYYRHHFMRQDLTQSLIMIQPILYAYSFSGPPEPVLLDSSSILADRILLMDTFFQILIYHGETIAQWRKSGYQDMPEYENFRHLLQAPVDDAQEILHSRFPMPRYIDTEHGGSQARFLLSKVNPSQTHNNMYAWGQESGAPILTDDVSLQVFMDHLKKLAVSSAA
T3 sequence (Q15436 whole entry partner, one chain of several): as the sequence (Q15436 whole entry partner) above
T3 sequence (O75396 1-195 partner limits assumed, one chain of several): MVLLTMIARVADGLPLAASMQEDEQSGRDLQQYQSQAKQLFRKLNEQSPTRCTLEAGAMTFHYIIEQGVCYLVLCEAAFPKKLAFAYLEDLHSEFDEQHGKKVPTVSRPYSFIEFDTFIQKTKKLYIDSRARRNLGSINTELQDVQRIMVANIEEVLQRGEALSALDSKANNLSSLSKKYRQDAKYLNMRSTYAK

Structure (SMILES) | EC50 [1, 4] | IC50 (human Sec24a) | fraction of mutant LDL receptor with restored trafficking ([1]; 10 mM 4-PBA applied to cells) | EC50 ([1]; read-out: EC50, acquisition of mutant LDL receptor glycosylation (restoration of trafficking), CHO cells expressing G544V-mutant LDL receptor, 2 hr at 37°C) | reduction in the packaging rate of p24 proteins and ERGIC-53 into COPII vesicles [2] | cell lysis (GAPDH marker) and loss of GRP94 secretion ([3]; 45 mM 4-PBA) | concentration giving maximal secretion of GRP94 ([3]; stressed and unstressed cells) | binding to Sec24a in crystals (difference Fourier maps / residual electron density) (B site of Sec24a)
COc1ccc(CCCC(=O)O)cc1 [Methoxy-PBA, 4-(4-methoxyphenyl)butyrate] | 8.63 ± 0.98 mM | 4.14 ± 0.7 mM | – | – | – | – | – | –
O=C(O)CCCc1ccccc1 [4-PBA, 4-phenylbutyrate] | 6.4 mM | 3.66 ± 0.22 mM | ≤ 25% | 6.37 ± 0.5 mM | 50% | cell lysis is detected | 20 mM | clear evidence for binding
O=C(O)CCCCc1ccccc1 [5-PVA, 5-phenylvalerate] | 3.36 ± 0.42 mM | 0.99 ± 0.08 mM | – | – | – | – | – | –
Cc1ccc(CCCC(=O)O)cc1 [Tolyl-BA, 4-(4-tolyl)butyrate] | 4.89 ± 0.24 mM | 1.7 ± 0.16 mM | – | – | – | – | – | –
O=C(O)CCCc1ccc(O)cc1 [Hydroxy-PBA, 4-(4-hydroxyphenyl)butyrate] | 10.6 ± 0.4 mM | 5.04 ± 0.69 mM | – | – | – | – | – | –
O=C(O)CCc1ccc(O)cc1 [Hydroxy-PPA, 3-(4-hydroxyphenyl)propionate] | 21.7 ± 1.03 mM | 9.22 ± 0.94 mM | – | – | – | – | – | –
O=C(O)CCc1ccccc1 [3-PPA, 3-phenylpropionate] | 7.48 ± 0.68 mM | 4.11 ± 0.34 mM | – | – | – | – | – | –
